Patent publication US4055715A, “Method of producing 1-N-[L-(-)-α-hydroxy-γ-aminobutyryl]XK-62-2” (Abbott Laboratories, priority 1974, dated 1977)
Values after ≈ are worked out from the molar mass of the structure shown.

Experiments:
Type in all cases: cell-based
[1] = tested on: Pseudomonas aeruginosa BMH 1; experiment: Agar-dilution MIC, pH 8.0 (Table 1); conditions: BMH1, pH 8, read-out: Minimum Inhibitory Concentration
[2] = tested on: Staphylococcus aureus ATCC 6538P; experiment: Agar-dilution MIC, pH 8.0 (Table 1); conditions: ATCC6538P, pH 8, read-out: Minimum Inhibitory Concentration
[3] = tested on: Bacillus subtilis No. 10707; experiment: Agar-dilution MIC, pH 8.0 (Table 1); conditions: NO.10707, pH 8, read-out: Minimum Inhibitory Concentration
[4] = tested on: Proteus vulgaris ATCC 6897; experiment: microbe, parasite or virus in culture; conditions: ATCC6897, pH 8, read-out: Minimum Inhibitory Concentration
[5] = tested on: Shigella sonnei ATCC 9290; experiment: microbe, parasite or virus in culture; conditions: ATCC9290, pH 8, read-out: Minimum Inhibitory Concentration
[6] = tested on: Salmonella typhosa ATCC 9992; experiment: Agar-dilution MIC, pH 8.0 (Table 1); conditions: Salmonella enterica, pH 8, read-out: Minimum Inhibitory Concentration
[7] = tested on: Krebsiella pneumoniae ATCC 10031; experiment: Agar-dilution MIC, pH 8.0 (Table 1); conditions: Klebsiella pneumoniae, ATCC10031, pH 8, read-out: Minimum Inhibitory Concentration
[8] = tested on: Escherichia coli ATCC 26; experiment: Agar-dilution MIC, pH 8.0 (Table 1); conditions: ATCC26, pH 8, read-out: Minimum Inhibitory Concentration
[9] = tested on: Escherichia coli KY 8327; experiment: Agar-dilution MIC, pH 8.0 (Table 1); conditions: Escherichia coli, KY8327; E. coli KY 8327, produces gentamicin adenyltransferase; agar-dilution, pH 8.0; read-out: Minimum Inhibitory Concentration
From the text: (§1) The former bacterium inactivates kanamycins and gentamicins by adenylation, and the latter inactivates gentamicins by acetylation.

[10] = tested on: Escherichia coli KY 8348; experiment: Agar-dilution MIC, pH 8.0 (Table 1); conditions: Escherichia coli, KY8348; E. coli KY 8348, produces gentamicin acetyltransferase Type I; agar-dilution, pH 8.0; read-out: Minimum Inhibitory Concentration
From the text: as §1

[11] = tested on: Staphylococcus aureus 209 P; experiment: Agar dilution MIC, pH 7.2 (Table 2); conditions: 209P, pH 7.2, read-out: Minimum Inhibitory Concentration
[12] = tested on: Staphylococcus aureus Smith; experiment: Agar dilution MIC, pH 7.2 (Table 2); conditions: pH 7.2, read-out: Minimum Inhibitory Concentration
[13] = tested on: Bacillus subtilis ATCC 6633; experiment: Agar dilution MIC, pH 7.2 (Table 2); conditions: ATCC6633, pH 7.2, read-out: Minimum Inhibitory Concentration
[14] = tested on: Sarcina lutea ATCC 9341; experiment: Agar dilution MIC, pH 7.2 (Table 2); conditions: Micrococcus luteus, ATCC9341, pH 7.2, read-out: Minimum Inhibitory Concentration
[15] = tested on: Escherichia coli T-2; experiment: Agar dilution MIC, pH 7.2 (Table 2); conditions: T2, pH 7.2, read-out: Minimum Inhibitory Concentration
[16] = tested on: Escherichia coli T-5; experiment: Agar dilution MIC, pH 7.2 (Table 2); conditions: T5, pH 7.2, read-out: Minimum Inhibitory Concentration
[17] = tested on: Escherichia coli KY 8327; experiment: Agar dilution MIC, pH 7.2 (Table 2); conditions: KY8327, E. coli KY 8327, read-out: Minimum Inhibitory Concentration
[18] = tested on: Escherichia coli KY 8321; experiment: Agar dilution MIC, pH 7.2 (Table 2); conditions: KY8321, pH 7.2, read-out: Minimum Inhibitory Concentration
[19] = tested on: Escherichia coli KY 8349; experiment: Agar dilution MIC, pH 7.2 (Table 2); conditions: KY8349, E. coli KY 8349, produces neomycin-kanamycin phosphotransferase Type I, read-out: Minimum Inhibitory Concentration
[20] = tested on: Pseudomonas aeruginosa BMH 1; experiment: Agar dilution MIC, pH 7.2 (Table 2); conditions: BMH1, pH 7.2, read-out: Minimum Inhibitory Concentration
[21] = tested on: Pseudomonas aeruginosa KY 8510; experiment: Agar dilution MIC, pH 7.2 (Table 2); conditions: KY8510, pH 7.2, read-out: Minimum Inhibitory Concentration
[22] = tested on: Pseudomonas aeruginosa KY 8511; experiment: Agar dilution MIC, pH 7.2 (Table 2); conditions: KY8511, pH 7.2, read-out: Minimum Inhibitory Concentration
[23] = tested on: Pseudomonas aeruginosa KY 8512; experiment: Agar dilution MIC, pH 7.2 (Table 2); conditions: KY8512, pH 7.2, read-out: Minimum Inhibitory Concentration
[24] = tested on: Pseudomonas aeruginosa KY 8516; experiment: Agar dilution MIC, pH 7.2 (Table 2); conditions: KY8516, pH 7.2, read-out: Minimum Inhibitory Concentration
[25] = tested on: Providencia sp. 164; experiment: Agar dilution MIC, pH 7.2 (Table 2); conditions: Providencia sp. 164, produces gentamicin acetyltransferase Type II, read-out: Minimum Inhibitory Concentration
[26] = tested on: Klebsiella pneumoniae No. 8045; experiment: Agar dilution MIC, pH 7.2 (Table 2); conditions: NO.8045, pH 7.2, read-out: Minimum Inhibitory Concentration
[27] = tested on: Proteus mirabilis 1287; experiment: Agar dilution MIC, pH 7.2 (Table 2); conditions: Proteus mirabilis, 1287, pH 7.2, read-out: Minimum Inhibitory Concentration
[28] = tested on: Proteus vulgaris 6897; experiment: Agar dilution MIC, pH 7.2 (Table 2); conditions: Proteus vulgaris, 6897, pH 7.2, read-out: Minimum Inhibitory Concentration
[29] = tested on: Proteus morganii KY 4298; experiment: Agar dilution MIC, pH 7.2 (Table 2); conditions: Morganella morganii, KY4298, pH 7.2, read-out: Minimum Inhibitory Concentration

## NC[C@H]1O[C@H](O[C@H]2[C@H](O)[C@@H](O[C@H]3O[C@H](CO)[C@@H](O)[C@H](N)[C@H]3O)[C@H](N)C[C@@H]2N)[C@H](O)[C@@H](O)[C@@H]1O [Kanamycin A, kanamycin A]
[1]
  MIC: 5.2 µg/mL (≈ 10.7 µM)
[2]
  MIC: 0.021 µg/mL (≈ 0.0433 µM)
[3]
  MIC: 0.021 µg/mL (≈ 0.0433 µM)
[4]
  MIC: 0.16 µg/mL (≈ 0.33 µM)
[5]
  MIC: 0.16 µg/mL (≈ 0.33 µM)
[6]
  MIC: 0.088 µg/mL (≈ 0.182 µM)
[7]
  MIC: 0.042 µg/mL (≈ 0.0867 µM)
[8]
  MIC: 0.16 µg/mL (≈ 0.33 µM)
[9]
  MIC: 1.04 µg/mL (≈ 2.15 µM)
[10]
  MIC: 0.041 µg/mL (≈ 0.0846 µM)
[11]
  MIC: 0.2 µg/mL (≈ 0.413 µM)
[12]
  MIC: 0.2 µg/mL (≈ 0.413 µM)
[13]
  MIC: 0.2 µg/mL (≈ 0.413 µM)
[14]
  MIC: 6.25 µg/mL (≈ 12.9 µM)
[15]
  MIC: 1.56 µg/mL (≈ 3.22 µM)
[16]
  MIC: 1.56 µg/mL (≈ 3.22 µM)
[17]
  MIC: 50 µg/mL (≈ 103 µM)
[18]
  MIC: 100 µg/mL (≈ 206 µM)
[19]
  MIC: > 100 µg/mL
[20]
  MIC: 12.5 µg/mL (≈ 25.8 µM)
[21]
  MIC: 100 µg/mL (≈ 206 µM)
[22]
  MIC: 100 µg/mL (≈ 206 µM)
[23]
  MIC: 12.5 µg/mL (≈ 25.8 µM)
[24]
  MIC: > 100 µg/mL
[25]
  MIC: > 100 µg/mL
[26]
  MIC: 0.4 µg/mL (≈ 0.826 µM)
[27]
  MIC: 6.25 µg/mL (≈ 12.9 µM)
[28]
  MIC: 3.12 µg/mL (≈ 6.44 µM)
[29]
  MIC: 1.56 µg/mL (≈ 3.22 µM)
